Our source for the Activity and inhibition in vivo values is ChEMBL document CHEMBL5052833, “Ube2k modulators and methods for their use” (2021).

Activity calls are given as the source filed them. No cut-off for these calls is given here.

Test [1] concerns the target T1, Ubiquitin-conjugating enzyme E2 K (Homo sapiens) (UniProt P61086).
T1 sequence (whole entry): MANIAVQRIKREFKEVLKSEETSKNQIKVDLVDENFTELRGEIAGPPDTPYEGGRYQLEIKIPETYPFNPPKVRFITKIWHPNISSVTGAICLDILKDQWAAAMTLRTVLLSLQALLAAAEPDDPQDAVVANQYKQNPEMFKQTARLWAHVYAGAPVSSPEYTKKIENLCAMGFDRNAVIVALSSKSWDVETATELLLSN
The test is described as follows: Stabilization of UBE2K (unknown origin) at 1 to 1000 uM assessed as modulation of ubiquitin discharge measured by ELISA assay. As to conditions: dose 1-1000 µM. (ELISA stands for enzyme-linked immunosorbent assay.)

Test [2] addresses T1, Ubiquitin-conjugating enzyme E2 K (Homo sapiens). As to the kind of experiment: Stabilization of mono-ubiquitinated UBE2K (unknown origin) at 500 uM assessed as decrease in poly-Ub measured by poly-ubiquitination assay.
Test [3] addresses Ubiquitin-conjugating enzyme E2 E1 (Homo sapiens) (UniProt P51965). As to the kind of experiment: Stabilization of mono-ubiquitinated UBE2E1 (unknown origin) at 500 uM assessed as decrease in poly-Ub measured by poly-ubiquitination assay.
Test [4] is filed under the species Homo sapiens. The test is described as follows: Stabilization of mono-ubiquitinated UBE2Q2 (unknown origin) at 500 uM assessed as decrease in poly-Ub measured by poly-ubiquitination assay.
For test [5], the species on record is Homo sapiens. As to the kind of experiment: Stabilization of mono-ubiquitinated UBE2S (unknown origin) at 500 uM assessed as decrease in poly-Ub measured by poly-ubiquitination assay.
Test [6] addresses T1, Ubiquitin-conjugating enzyme E2 K (Homo sapiens). As to the kind of experiment: Stabilization of mono-ubiquitinated UBE2K (unknown origin) at 0.4 to 100 uM assessed as decrease in poly-Ub measured by poly-ubiquitination assay. As to conditions: dose 0.4-100 µM.
The species entered for test [7] is Homo sapiens. As to the kind of experiment: Stabilization of mono-ubiquitinated UBE2D4 (unknown origin) at 500 uM assessed as decrease in poly-Ub measured by poly-ubiquitination assay.
Test [8] is filed under the species Homo sapiens. The test is described as follows: Stabilization of mono-ubiquitinated UBE2W (unknown origin) at 500 uM assessed as decrease in poly-Ub measured by poly-ubiquitination assay.
Test [9] concerns the target T1, Ubiquitin-conjugating enzyme E2 K (Homo sapiens). The test is described as follows: Stabilization of mono-ubiquitinated UBE2K (unknown origin) at 0.25 to 50 uM assessed as decrease in poly-Ub measured by poly-ubiquitination assay. As to conditions: dose 0.25-50 µM.
For test [10] the target is unchanged. The test is described as follows: Stabilization of mono-ubiquitinated UBE2K (unknown origin) at 0.25 to 25 uM assessed as decrease in poly-Ub measured by poly-ubiquitination assay. As to conditions: dose 0.25-25 µM.
In test [11] the test system is MV4-11. As to the kind of experiment: Antitumor activity against human MV4-11 cells xenografted nude mouse assessed as tumor growth inhibition at 75 mg/kg, po administered twice a day for 24 days. The class given is functional. The note with it: MV4-11, po, 576 h, time 24 day, read-out: TGI.
For test [12], the system named is MV4-11. As to the kind of experiment: Antitumor activity against human MV4-11 cells xenografted nude mouse assessed as tumor growth inhibition at 150 mg/kg, po administered twice a day for 24 days. The class given is functional. As to conditions: MV4-11, po, 576 h, time 24 day, read-out: TGI. In general terms: Xenograft models place foreign cells or tissue in a host animal.

Test [13] addresses T1, Ubiquitin-conjugating enzyme E2 K (Homo sapiens). As to the kind of experiment: Stabilization of mono-ubiquitinated UBE2K (unknown origin) at 16 to 100 uM assessed as decrease in poly-Ub measured by poly-ubiquitination assay. The note with it: dose 16-100 µM.
For test [14], the system named is K562. The test is described as follows: Antitumor activity against human K562 cells xenografted female SCID Bg mouse assessed as tumor growth inhibition at 25 mg/kg, po administered twice a day for 12 consecutive days and measured on day 10. The class given is functional. The note with it: 240 h, time 10 day, read-out: TGI.
The subject of test [15] is K562. The test is described as follows: Antitumor activity against human K562 cells xenografted female SCID Bg mouse assessed as tumor growth inhibition at 25 mg/kg, po administered twice a day for 12 consecutive days and measured on day 12. The class given is functional. The note with it: 288 h, time 12 day, read-out: TGI.

Sequence of Ubiquitin-conjugating enzyme E2 E1 (Homo sapiens) (P51965 whole entry): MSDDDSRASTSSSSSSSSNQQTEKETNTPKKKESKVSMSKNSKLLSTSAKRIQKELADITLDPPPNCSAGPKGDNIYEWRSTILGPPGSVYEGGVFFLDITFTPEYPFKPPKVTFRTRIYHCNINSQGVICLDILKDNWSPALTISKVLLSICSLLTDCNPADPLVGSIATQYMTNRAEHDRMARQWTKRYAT

Take `COc1ccccc1-c1nc(CNC(=O)c2cc(C#N)ccc2OC(F)F)n[nH]1`: the outcome in [1] was Active.

With `COc1ccccc1-c1cc(CNC(=O)c2ccccc2OC(F)(F)F)n[nH]1`, the result in test [2], in test [1] and in [6] was Active. For the same compound, the outcome (in [3]; in the test filed under Homo sapiens [4]; in the test listed under Homo sapiens [5]; in the test listed under Homo sapiens [7]; in the test filed under Homo sapiens [8]) was inactive.

For `O=C(NCc1cc(-c2ccccc2O)[nH]n1)c1ccccc1OC(F)(F)F`, the result in [1] and in test [6] was Active.

Turning to `O=C(NCc1cc(-c2cccs2)[nH]n1)c1ccccc1OC(F)(F)F`, the outcome in [9] was Active.

Turning to `O=C(NCc1cc(-c2cccs2)[nH]n1)c1ccccc1OC(F)F`, the outcome in [10] was Active.

As for `COc1ccc(F)cc1-c1nc(CNC(=O)c2cccc3c2OC(F)(F)O3)n[nH]1`, the result in [1] was Active. Moreover, the inhibition in vivo at 75 mg/kg in the test with MV4-11 [11] was 43%. Moreover, the inhibition in vivo at 150 mg/kg in the test with MV4-11 [12] was determined as 37%.

As for `COc1ccccc1-c1nc(CNC(=O)c2ccccc2OC(F)F)n[nH]1`, the outcome in test [2], in test [1] and in [6] was Active. For the same compound, the outcome (in test [3]; in the test listed under Homo sapiens [4]; in the test filed under Homo sapiens [5]; in the test filed under Homo sapiens [7]; in the test filed under Homo sapiens [8]) was inactive.

Regarding `O=C(NCc1cc(-c2cccs2)[nH]n1)c1ccccc1C(F)(F)F`, the result in test [13] was Active.

For the compound `COc1ccc(F)cc1-c1nc(CNC(=O)c2cc(F)ccc2OC(F)(F)F)n[nH]1`, the values for the inhibition in vivo at 25 mg/kg in the test with K562 [14] and in the test on K562 [15] were 73.6% and 86.3%, respectively.

Turning to `COc1ccc(F)cc1-c1nc(CNC(=O)c2ccccc2OC(F)F)n[nH]1`, the result in [2] was Active. Further, the result (in test [3]; in the test filed under Homo sapiens [4]; in the test listed under Homo sapiens [5]; in the test filed under Homo sapiens [7]; in the test filed under Homo sapiens [8]) was inactive.
